Assay results from ChEMBL document CHEMBL1201862, “PubChem BioAssay data set” (2004).
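Cultured in 96-well plates, cells were exposed to test compound for 48 hours across five concentrations. GI50 = concentration required for 50% inhibition of growth.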 Activity calls are given as the source filed them. Cut-off read from the data, not from the text of the source: active = GI50 up to about 1.1 µM and inactive = higher.

What was measured:
Experiment in all cases: inhibition of tumour cell growth, NCI panel, 48 h
MDA-MB-231 = test system: MDA-MB-231
SNB-75 = test system: SNB-75
NCI-H460 = test system: NCI-H460
HOP-62 = test system: HOP-62
ACHN = test system: ACHN
UO-31 = test system: UO-31
DU-145 = test system: DU-145
TK-10 = test system: TK-10
HT-29 = test system: HT-29
RXF 393 = test system: RXF 393
CCRF-CEM = test system: CCRF-CEM
SK-OV-3 = test system: SK-OV-3
K562 = test system: K562
COLO 205 = test system: COLO 205
HCC 2998 = test system: HCC 2998
RPMI-8226 = test system: RPMI-8226
SK-MEL-5 = test system: SK-MEL-5
SK-MEL-28 = test system: SK-MEL-28
T47D = test system: T47D
OVCAR-8 = test system: OVCAR-8
BT-549 = test system: BT-549
Hs-578T = test system: Hs-578T
786-0 = test system: 786-0
OVCAR-4 = test system: OVCAR-4
NCI-H226 = test system: NCI-H226
UACC-257 = test system: UACC-257
HL-60 = test system: HL-60
SF-295 = test system: SF-295
OVCAR-5 = test system: OVCAR-5
NCI-H522 = test system: NCI-H522
HCT-116 = test system: HCT-116
MDA-MB-435 = test system: MDA-MB-435
EKVX = test system: EKVX
PC-3 = test system: PC-3
SK-MEL-2 = test system: SK-MEL-2
SF-539 = test system: SF-539
MCF7 = test system: MCF7
A498 = test system: A498
M14 = test system: M14
IGROV-1 = test system: IGROV-1
U-251 = test system: U-251
A549 = test system: A549
HOP-92 = test system: HOP-92
NCI-H23 = test system: NCI-H23
OVCAR-3 = test system: OVCAR-3
MOLT-4 = test system: MOLT-4
NCI/ADR-RES = test system: NCI/ADR-RES
KM12 = test system: KM12
CAKI-1 = test system: CAKI-1
SW-620 = test system: SW-620
SN12C = test system: SN12C
HCT-15 = test system: HCT-15
SNB-19 = test system: SNB-19
SF-268 = test system: SF-268
UACC-62 = test system: UACC-62
LOX IMVI = test system: LOX IMVI
SR = test system: SR
Malme-3M = test system: Malme-3M

Measured: GI50

ClCCCc1ccccc1C1=NCCc2ccccc21
> 100 µM: HCT-15
inactive: MDA-MB-231 > 100 µM | SNB-75 17.5 µM | NCI-H460 43.9 µM | HOP-62 > 100 µM | ACHN > 100 µM | UO-31 > 100 µM | DU-145 > 100 µM | TK-10 > 100 µM | HT-29 28.5 µM | RXF 393 > 100 µM | CCRF-CEM > 100 µM | SK-OV-3 > 100 µM | K562 13.7 µM | COLO 205 22 µM | HCC 2998 40.3 µM | RPMI-8226 3.21 µM | SK-MEL-5 9.73 µM | SK-MEL-28 > 100 µM | T47D 31.3 µM | OVCAR-8 24.9 µM | BT-549 21 µM | Hs-578T 31.7 µM | 786-0 > 100 µM | OVCAR-4 51.5 µM | NCI-H226 55.1 µM | UACC-257 43.1 µM | HL-60 23.5 µM | SF-295 > 100 µM | OVCAR-5 > 100 µM | NCI-H522 25.5 µM | HCT-116 42.4 µM | MDA-MB-435 37.5 µM | EKVX 80.9 µM | PC-3 36.5 µM | SK-MEL-2 > 100 µM | SF-539 > 100 µM | MCF7 66.2 µM | A498 > 100 µM | M14 > 100 µM | IGROV-1 98.9 µM | U-251 25.8 µM | A549 54.2 µM | HOP-92 81.1 µM | NCI-H23 15.8 µM | OVCAR-3 > 100 µM | MOLT-4 82.4 µM | NCI/ADR-RES > 100 µM | KM12 40.9 µM | CAKI-1 > 100 µM | SW-620 > 100 µM | SN12C 48.4 µM | SNB-19 36.8 µM | SF-268 49.7 µM | UACC-62 56.2 µM

COc1cc2c3c(c1OC)C(=O)C(=O)C1=C3N(CCC1)CC2
inactive: MDA-MB-231 31.3 µM | NCI-H460 12.2 µM | HOP-62 30.5 µM | ACHN 42.1 µM | UO-31 41 µM | DU-145 38 µM | TK-10 70 µM | HT-29 24.3 µM | RXF 393 26.6 µM | CCRF-CEM 20.3 µM | K562 5.7 µM | COLO 205 10.4 µM | HCC 2998 36.7 µM | SK-MEL-5 33 µM | SK-MEL-28 36.9 µM | T47D 23.2 µM | OVCAR-8 21.5 µM | BT-549 21.8 µM | Hs-578T 2.72 µM | 786-0 43.4 µM | OVCAR-4 24.2 µM | UACC-257 28.6 µM | HL-60 19.1 µM | SF-295 23.5 µM | OVCAR-5 52.2 µM | NCI-H522 19.7 µM | HCT-116 18.5 µM | MDA-MB-435 22 µM | EKVX 17.5 µM | LOX IMVI 26.7 µM | SR 18.5 µM | PC-3 31.5 µM | SK-MEL-2 48.9 µM | SF-539 29.6 µM | MCF7 14.9 µM | A498 30.3 µM | M14 26.4 µM | IGROV-1 28.7 µM | U-251 15.5 µM | A549 34.8 µM | HOP-92 19.4 µM | NCI-H23 20.6 µM | OVCAR-3 23.6 µM | MOLT-4 18.9 µM | NCI/ADR-RES 56 µM | KM12 17 µM | CAKI-1 32.4 µM | SW-620 32.4 µM | SN12C 32.4 µM | SNB-19 63.4 µM | SF-268 13.2 µM | UACC-62 18.1 µM
27.9 µM: HCT-15

CC(C)(O)c1cc2c(cc1C(C)(C)O)-c1ccccc1-2
inactive: MDA-MB-231 > 100 µM | SNB-75 29.2 µM | NCI-H460 > 100 µM | ACHN 85.3 µM | DU-145 > 100 µM | TK-10 > 100 µM | RXF 393 71.9 µM | CCRF-CEM > 100 µM | K562 > 100 µM | COLO 205 > 100 µM | HCC 2998 > 100 µM | RPMI-8226 > 100 µM | SK-MEL-5 > 100 µM | SK-MEL-28 > 100 µM | T47D > 100 µM | OVCAR-8 > 100 µM | BT-549 > 100 µM | Hs-578T 29.6 µM | 786-0 79.8 µM | OVCAR-4 > 100 µM | NCI-H226 > 100 µM | UACC-257 > 100 µM | HL-60 > 100 µM | SF-295 67.1 µM | OVCAR-5 > 100 µM | NCI-H522 > 100 µM | MDA-MB-435 > 100 µM | EKVX 59.7 µM | LOX IMVI > 100 µM | SR > 100 µM | Malme-3M > 100 µM | PC-3 > 100 µM | SK-MEL-2 > 100 µM | SF-539 > 100 µM | MCF7 > 100 µM | A498 > 100 µM | M14 > 100 µM | IGROV-1 > 100 µM | U-251 > 100 µM | A549 > 100 µM | HOP-92 17.9 µM | OVCAR-3 > 100 µM | MOLT-4 > 100 µM | NCI/ADR-RES > 100 µM | KM12 > 100 µM | CAKI-1 > 100 µM | SW-620 > 100 µM | SN12C > 100 µM | SNB-19 > 100 µM | SF-268 43.8 µM | UACC-62 36.2 µM
> 100 µM: HCT-15
